Assay results taken from PubChem BioAssay (NCI).
Several values for one entry are separate records, joined by “and”; a condition that tells them apart may be missing. Equal values may be shown once.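 Dose response: 5 concentrations. Exposure: 48 h. Format: 96-well plates. Endpoint: linear interpolation; highest concentration if not reached. GI50 is the concentration that inhibits growth by half. The concentration for full growth arrest is given as TGI.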

Experiments:
Experiment in all cases: NCI tumour cell line growth inhibition, 48 h
[1] = test system: SF-268 CNS
[2] = test system: IGROV1 ovarian
[3] = test system: U251 CNS
[4] = test system: HCC-2998 colon
[5] = test system: CAKI-1 renal
[6] = test system: A549 NSCLC
[7] = test system: 786-0 renal
[8] = test system: HT29 colon
[9] = test system: K-562 leukemia
[10] = test system: MDA-MB-435

Structure (SMILES)	GI50 [1] [µM]	TGI [1]	GI50 [2] [µM]	TGI [2] [µM]	GI50 [3] [µM]	TGI [3] [µM]	GI50 [4] [µM]	TGI [4]	GI50 [5] [µM]	TGI [5] [µM]	GI50 [6] [µM]	TGI [6]	GI50 [7] [µM]	TGI [7] [µM]	TGI [8]	TGI [9] [µM]	TGI [10] [µM]	GI50 [9] [µM]	GI50 [10] [µM]	GI50 [8] [µM]
COc1cc(-c2nn3c(/C=C4/C(=O)Nc5ccccc54)c(-c4ccc(C)cc4)nc3s2)cc(OC)c1OC	3.62	> 100 µM	4.75	> 100	1.59	3.43	> 100	> 100 µM	15.4	> 100	2.12	> 100 µM	5.8	21.4	–	–	–	–	–	–
C=CCC1OC(C)(C)Oc2ccc(OCOCCOC)cc21 (configuration not stated)	–	> 100 µM	–	> 100	–	> 100	–	> 100 µM	–	> 100	–	> 100 µM	–	> 100	> 100 µM	> 100	–	–	–	–
c1ccc(SC2(Sc3ccccc3)CCCC2)cc1	–	> 100 µM	–	–	–	> 100	–	–	–	> 100	–	> 100 µM	–	> 100	–	> 100	–	–	–	–
N=C(c1ccccc1)N(c1ccccc1)c1ccccc1	–	> 100 µM	–	–	–	> 100	–	> 100 µM	–	> 100	–	> 100 µM	–	> 100	> 100 µM	–	–	–	–	–
COc1cc2c(cc1O)C=NCC2	–	> 100 µM	–	> 100	–	> 100	–	–	–	> 100	–	> 100 µM	–	> 100	–	> 100	–	–	–	–
CCCCCCCCCCCOC(=S)NC(C)C	–	42.7 µM	–	49.9	–	30.2	–	31.1 µM	–	39.9	–	51.1 µM	–	39.3	34.6 µM	46.4	–	–	–	–
O=[As](O)(O)c1ccc(NCc2ccccc2)cc1	–	> 100 µM	–	> 100	–	> 100	–	–	–	> 100	–	> 100 µM	–	> 100	> 100 µM	> 100	> 100	–	–	–
CC1CC2C3CC(F)C4=CC(=O)C=CC4(C)C3(F)C(O)CC2(C)C1(O)C(=O)COC(=O)C(C)(C)C (configuration not stated)	–	> 100 µM	–	> 100	–	> 100	–	> 100 µM	–	> 100	–	> 100 µM	–	> 100	> 100 µM	> 100	–	–	–	–
CN1C(=O)c2c(ccc3c2OCO3)C2C(O)Cc3cc4c(cc3C21)OCO4 (configuration not stated)	–	> 100 µM	–	8.85	–	> 100	–	64.4 µM	–	81.7	–	> 100 µM	–	37.3	10.1 µM	60.2	–	–	–	–
COc1cc2c(/C=N\N=C(N)N)c(Cl)[nH]c2cc1C	15.2	40.7 µM	17.5	49.9	4.62	17.7	2.5	5.67 µM	17	32.7	18.6	37.3 µM	14.4	28.3	–	19.7	26.2	4.36	12.2	–
O=C(O)c1ccccc1Cc1ccco1	–	> 100 µM	–	> 100	–	> 100	–	> 100 µM	–	> 100	–	> 100 µM	–	> 100	> 100 µM	> 100	–	–	–	–
COc1ccc(-c2[nH]ncc2-c2cc3c(c(OC)c2)OCC(=O)N3)cc1	0.935	> 100 µM	0.674	> 100	0.481	> 100	1.14	27 µM	0.556	> 63.3	1.44	> 100 µM	1.21	> 100	> 100 µM	> 100	–	0.309	–	0.378
O=C(NCCCCCCCCNC(=O)c1cnc2ccccc2n1)c1cnc2ccccc2n1	–	> 100 µM	–	> 100	–	> 100	–	–	–	> 100	–	> 100 µM	–	> 100	> 100 µM	> 100	–	–	–	–
O=C(O)CSCc1cccc2ccccc12	–	> 100 µM	–	> 100	–	> 100	–	–	–	> 100	–	> 100 µM	–	> 100	> 100 µM	> 100	> 100	–	–	–
Nc1nc(CCC(=O)Nc2cccc(C(F)(F)F)c2)cc(-c2cccc3ccccc23)n1	–	> 100 µM	–	> 100	–	> 100	–	> 100 µM	–	> 100	–	> 100 µM	–	> 100	> 100 µM	> 100	–	–	–	–
CCOc1ccc(NC(=O)CC2SC(=Nc3ccc(Cl)cc3)NC2=O)cc1 (configuration not stated)	–	> 100 µM	–	> 100	–	–	–	> 100 µM	–	48.8	–	> 100 µM	–	> 100	> 100 µM	76.4	–	–	–	–
CC1=C(C(=O)NCc2ccccc2)C(c2ccc(C3C(C(=O)NCc4ccccc4)=C(C)NC(C)=C3C(=O)NCc3ccccc3)cc2)C(C(=O)NCc2ccccc2)=C(C)N1	–	81.7 µM	–	37.8	–	14.4	–	35.3 µM	–	34.9	–	61.3 µM	–	28.9	20.3 µM	> 100	–	–	–	–
CCSc1nnc2c(-c3ccccc3)n[nH]c2n1	–	> 100 µM	–	> 100	–	> 100	–	–	–	> 100	–	> 100 µM	–	> 100	> 100 µM	> 100	> 100	–	–	–
O=C(O)CN(c1ccccc1)S(=O)(=O)c1ccc(NC(=O)c2ccccc2)cc1	–	> 100 µM	–	> 100	–	> 100	–	–	–	> 100	–	> 100 µM	–	> 100	–	> 100	–	–	–	–
COc1cc2c(cc1OC)C13CCN4C=C5CCOC6CC(=O)N2C1C6C5CC43 (configuration not stated)	–	> 100 µM	–	> 100	–	> 100	–	–	–	> 100	–	> 100 µM	–	> 100	> 100 µM	> 100	> 100	–	–	–
CC1[C@@H]2[C@@H](C=C3C4CCC5Cc6nc7c(nc6C[C@@]5(C)C4C[C@H](O)[C@]32CO)CC2CCC3C4=C[C@H]5O[C@@]6(O[C@@](C)(CO)C[C@@H]6O)C(C)[C@@]5(O)[C@]4(C)[C@@H](O)CC3[C@]2(C)C7)O[C@]12CCC(C)(C)O2 (some centres not stated)	0.00304	0.945 µM and 0.0972 µM	0.0049	> 3.65	< 0.000365	0.0664	1.34	0.39 µM and > 3.65 µM	0.0406	> 3.65	0.00602	0.919 µM and > 3.65 µM	–	0.534	0.44 µM and 0.414 µM	–	–	–	–	0.00302
